The source of these data is US20160120854A1, “PHARMACEUTICAL COMPOSITIONS” (BAYER PHARMA AKTIENGESELl SCHAFT, priority 2013, published 2016).

Converted amounts (≈) assume the structure as drawn.

Holding throughout (format): physicochemical
A short description of series [1]: Solubility in PEG400 based vehicles.
A short description of series [2]: Nine months stability study in PEG400 based LSF. Conditions: nine months at 25 and 40° C.
A short description of series [3]: Stability in PEG6000 melt. Particulars: 20% drug load, minimally two months, room temperature. How it is done:
Nine parts of PEG6000 were melted in an aluminium cup (70° to 90° C.). One part of (2R)-2-(4-fluorophenyl)-N-[4-(2-{[2-methoxy-4-(methylsulfonyl)phenyl]-amino}[1,2,4]triazolo[1,5-a]pyridin-6-yl)phenyl]propanamide was added to the PEG 6000 melt. The mixture was stirred with a glass stick at approximately 90° C. After complete dissolution of (2R)-2-(4-fluorophenyl)-N-[4-(2-{[2-methoxy-4-(methylsulfonyl)phenyl]amino}[1,2,4]triazolo[1,5-a]pyridin-6-yl)phenyl]propanamide, the melt was cooled down by embedding the cup in a ice-water/NaCl mixture for several minutes. The solidified melt was pestled. (2R)-2-(4-fluorophenyl)-N-[4-(2-{[2-methoxy-4-(methylsulfonyl)phenyl]-amino}[1,2,4]triazolo[1,5-a]pyridin-6-yl)phenyl]propanamide is stable in PEG6000 melt with 20% drug load for minimally two months at room temperature.

Usually solubility stands for the concentration that dissolves in the medium under given conditions. As for `COc1cc(S(C)(=O)=O)ccc1Nc1nc2ccc(-c3ccc(NC(=O)[C@H](C)c4ccc(F)cc4)cc3)cn2n1` [compound A, (2R)-2-(4-fluorophenyl)-N-[4-(2-{[2-methoxy-4-(methylsulfonyl)phenyl]-amino}[1,2,4]triazolo[1,5-a]pyridin-6-yl)phenyl]propanamide], the solubility was roughly 25 mg/mL (≈ 44.7 mM) in series [1] (aqueous with cosolvent or surfactant or cyclodextrin, in PEG400/PVP/water 8:1:1); roughly 25 mg/mL (≈ 44.7 mM) in series [1] (organic solvent or mixture, in PEG400/PVP 8:2); roughly 25 mg/mL (≈ 44.7 mM) in series [1] (organic solvent or mixture, in PEG400 based LSF (PEG400/Tween 80/L-Menthol 97:2, 5:0, 5)). Besides, the “stability in PEG400 based LSF” value in series [2] was “no significant time dependant instability”. Also, the “stability in PEG6000 melt” value in series [3] is reported as “stable”.
